# Test results from paper PMC12432378 (Cell Reports Medicine, 2025).
# pIC50: −log10 of the molar value. Positions of bridges follow the written chain, without caps; N, C: chain ends. Non-standard residues stand in square brackets, D forms with d. Residues, ends and D or L forms follow the SMILES beside them. S5 = C=CCCC[C@](C)(N)C(=O)O
# Assays:
# MjHKU4r-CoV-1 PsV = conditions: for pIC50: 48 h
# authentic MjHKU4r-CoV-1 [1] = conditions: 72 h
# [2] = test system: pseudotyped SARS-CoV-2 (Delta); conditions: pseudotyped (Delta, 48 h)
# MjHKU4r-S = format: cell-based, MjHKU4r-CoV-1; conditions: for pIC50: read-out: IC50 against MjHKU4r-S-mediated cell-cell fusion
# [3] = test system: pseudotyped SARS-CoV-2 (KP.2); conditions: pseudotyped (KP.2, 48 h)
# MERS-CoV PsV = conditions: 48 h
# HCoV-OC43 = test system: HCoV-OC43; design: species or system newborn ICR mice; conditions: mouse, in vivo
# authentic MjHKU4r-CoV-1 [4] = format: cell-based
Compound,pIC50 (MjHKU4r-CoV-1 PsV),pIC50 (authentic MjHKU4r-CoV-1 [1]),pIC50 [2],Improvement in inhibition of pseudotyped MjHKU4r-CoV-1 infection compared to original MjHKU4r-HR2P (MjHKU4r-CoV-1 PsV) [fold],pIC50 (MjHKU4r-S),pIC50 [3],pIC50 (authentic HCoV-OC43),pIC50 (MERS-CoV PsV),Survival rate (HCoV-OC43) [%],Inhibition of MjHKU4r-S-mediated cell-cell fusion at fixed concentration (MjHKU4r-S),Blockage of MjHKU4r-CoV-1 N protein expression (immunofluorescence) (authentic MjHKU4r-CoV-1 [4])
CSCC[C@H](NC(=O)[C@H](C)NC(=O)CNC(=O)[C@H](CC(C)C)NC(=O)[C@H](C)NC(=O)[C@H](CCC(N)=O)NC(=O)[C@H](CC(N)=O)NC(=O)[C@H](Cc1ccccc1)NC(=O)[C@H](CCCCN)NC(=O)[C@H](CC(N)=O)NC(=O)[C@H](C)NC(C)=O)C(=O)N[C@@H](CCC(N)=O)C(=O)N[C@H](C(=O)NCC(=O)N[C@@H](Cc1ccccc1)C(=O)N[C@H](C(=O)N[C@H](C(=O)N[C@@H](CO)C(=O)N[C@@H](CC(N)=O)C(=O)N[C@@H](CC(C)C)C(=O)N[C@@H](C)C(=O)N[C@@H](Cc1ccccc1)C(=O)N[C@@H](CO)C(=O)N[C@@H](CCCCN)C(=O)N[C@H](C(=O)N[C@@H](CCC(N)=O)C(=O)N[C@@H](CC(=O)O)C(=O)N[C@@H](C)C(=O)N[C@H](C(=O)N[C@@H](CC(N)=O)C(=O)N[C@@H](C)C(=O)N[C@@H](CC(N)=O)C(=O)N[C@@H](C)C(=O)N[C@@H](CC(N)=O)C(=O)N[C@@H](C)C(=O)N[C@@H](CC(C)C)C(=O)N[C@@H](CO)C(=O)N[C@@H](CCCCN)C(=O)N[C@@H](CC(C)C)C(=O)N[C@@H](C)C(=O)N[C@@H](CO)C(=O)N[C@@H](CCC(=O)O)C(N)=O)C(C)C)C(C)C)[C@@H](C)O)[C@@H](C)O)[C@@H](C)O [MjHKU4r-HR1P],< 5.00,< 5.30,,,,,,,,,
CC[C@H](C)[C@H](NC(=O)[C@H](C)NC(=O)[C@H](CCSC)NC(=O)[C@H](CCC(=O)O)NC(=O)[C@H](CC(=O)O)NC(=O)[C@H](CO)NC(=O)[C@H](CC(C)C)NC(=O)[C@H](CC(=O)O)NC(=O)[C@H](CC(C)C)NC(=O)[C@H](CC(C)C)NC(=O)[C@@H](NC(=O)[C@@H](NC(=O)[C@H](CC(N)=O)NC(=O)[C@@H](NC(=O)[C@H](CCCCN)NC(=O)[C@H](CO)NC(=O)[C@@H](NC(=O)[C@H](CCC(=O)O)NC(C)=O)[C@@H](C)CC)[C@@H](C)CC)C(C)C)[C@@H](C)O)C(=O)N[C@@H](CC(C)C)C(=O)N[C@@H](CC(C)C)C(=O)N[C@@H](CCC(=O)O)C(=O)N[C@@H](C)C(=O)N[C@H](C(=O)N[C@@H](CCCCN)C(=O)N[C@@H](CCC(N)=O)C(=O)N[C@@H](CC(C)C)C(=O)N[C@@H](CC(N)=O)C(=O)N[C@@H](CC(=O)O)C(=O)N[C@@H](CO)C(=O)N[C@@H](Cc1ccc(O)cc1)C(=O)N[C@H](C(=O)N[C@@H](CC(=O)O)C(=O)N[C@@H](CC(C)C)C(=O)N[C@@H](CCCCN)C(=O)N[C@@H](CCC(=O)O)C(=O)N[C@@H](CC(C)C)C(N)=O)[C@@H](C)CC)[C@@H](C)CC [MjHKU4r-HR2P9],7.59,,6.39,2.9,7.99,6.34,5.99,6.94,,,
CC[C@H](C)[C@H](NC(=O)[C@H](C)NC(=O)[C@H](CCSC)NC(=O)[C@H](CCC(=O)O)NC(=O)[C@H](CC(=O)O)NC(=O)[C@H](CO)NC(=O)[C@H](CC(C)C)NC(=O)[C@H](CC(=O)O)NC(=O)[C@H](CC(C)C)NC(=O)[C@H](CC(C)C)NC(=O)[C@@H](NC(=O)[C@@H](NC(=O)[C@H](CC(N)=O)NC(=O)[C@@H](NC(=O)[C@H](CCCCN)NC(=O)[C@H](CO)NC(=O)[C@@H](NC(=O)[C@H](CCC(=O)O)NC(C)=O)[C@@H](C)CC)[C@@H](C)CC)C(C)C)[C@@H](C)O)C(=O)N[C@@H](CC(C)C)C(=O)N[C@@H](CC(C)C)C(=O)N[C@@]1(C)CCCC=CCCC[C@@](C)(C(=O)N[C@@H](CC(C)C)C(=O)N[C@@H](CC(N)=O)C(=O)N[C@@H](CC(=O)O)C(=O)N[C@@H](CO)C(=O)N[C@@H](Cc2ccc(O)cc2)C(=O)N[C@H](C(=O)N[C@@H](CC(=O)O)C(=O)N[C@@H](CC(C)C)C(=O)N[C@@H](CCCCN)C(=O)N[C@@H](CCC(=O)O)C(=O)N[C@@H](CC(C)C)C(N)=O)[C@@H](C)CC)NC(=O)[C@H](CCCCN)NC(=O)[C@H]([C@@H](C)CC)NC(=O)[C@H](C)NC1=O [MjHKU4r-HR2P10] (Ac-EISKINVTLLDLSDEMAILL[S5]AIK[S5]LNDSYIDLKEL-NH2; staple 21-25),,,6.94,,,7.07,6.32,7.43,66.7,,
CC[C@H](C)[C@H](NC(=O)[C@H](C)NC(=O)[C@H](CCSC)NC(=O)[C@H](CCC(=O)O)NC(=O)[C@H](CC(=O)O)NC(=O)[C@H](CO)NC(=O)[C@H](CC(C)C)NC(=O)[C@H](CC(=O)O)NC(=O)[C@H](CC(C)C)NC(=O)[C@H](CC(C)C)NC(=O)[C@@H](NC(=O)[C@@H](NC(=O)[C@H](CC(N)=O)NC(=O)[C@@H](NC(=O)[C@H](CCCCN)NC(=O)[C@H](CO)NC(=O)[C@@H](NC(=O)[C@H](CCC(=O)O)NC(C)=O)[C@@H](C)CC)[C@@H](C)CC)[C@@H](C)O)[C@@H](C)O)C(=O)N[C@@H](CC(C)C)C(=O)N[C@@H](CCC(N)=O)C(=O)N[C@@H](CCC(=O)O)C(=O)N[C@H](C(=O)N[C@H](C(=O)N[C@@H](CCCCN)C(=O)N[C@@H](CCC(N)=O)C(=O)N[C@@H](CC(C)C)C(=O)N[C@@H](CC(N)=O)C(=O)N[C@@H](CC(=O)O)C(=O)N[C@@H](CO)C(=O)N[C@@H](Cc1ccc(O)cc1)C(=O)N[C@H](C(=O)N[C@@H](CC(=O)O)C(=O)N[C@@H](CC(C)C)C(=O)N[C@@H](CCCCN)C(=O)N[C@@H](CCC(=O)O)C(=O)N[C@@H](CC(C)C)C(N)=O)[C@@H](C)CC)C(C)C)C(C)C [MjHKU4r-HR2P],7.21,7.58,,,7.43,,,,,completely inhibited,near-complete blockage
